Experimental data reported in paper PMC10605847 (Cancers, 2023).

What was measured:
HDAC1 = biological target: T1, HDAC1 (Homo sapiens, UniProt Q13547); assay: HDAC1 fluorimetric inhibitory activity assay (Fluor de Lys kit); assay type: biochemical; settings: read-out: HDAC1-Inhibitory Ability (IC50)
T1 construct: purchased Enzo Life Sciences International, Inc
Procedure: HDAC1-inhibitory activity was determined using the HDAC activity analysis kit by fluorescence measurement (HDAC1 Fluorimetric Drug Discovery Assay Kit A Fluoro de Lys Fluorescent Assay System, Enzo Life Sciences International, Inc., Farmingdale, New York, USA) in accordance with the manufacturer’s instructions. Fluorescence was measured at an excitation wavelength of 360 nm and emission of 460 nm. […] All experiments were carried out in three repetitions.

in vitro = settings: human
Procedure: (§1) For all experiments using cell lines, cells were cultured in a DMEM culture medium with the addition of 10% fetal bovine serum, 2 mM glutamine and 1% penicillin-streptomycin as antibiotics under standard conditions at 37 °C with 5% CO2.
(§2) Cell viability was measured using MTT analysis, as described earlier [48]. In short, 10,000 HeLa and Hek-293 cells per well were placed in sterile 96-well culture plates and cultured under the standard conditions described above for 24 h to adhere. After the time elapsed, the cells were treated with the studied compounds in a concentration range from 0.1 to 100 µM (0.1–1–3–10–30–100) and incubated for 24 h. The control samples contained an equivalent volume of solvent (DMSO < 1%). At the end of incubation, cell viability was measured by adding an MTT solution (the final concentration was 5 mg/mL, DiaM, Moscow, Russia). After 2 h of incubation at 37 °C, the nutrient medium was carefully aspirated and replaced with 200 µL of dimethyl sulfoxide to dissolve the formazane granules. The optical density of the formazane solution was determined using a multifunctional analyzer Cytation™3 (BioTek Instruments, Inc., Winooski, VT, USA) at λ = 530 nm. All experiments were carried out in three repetitions.

HeLa cells = assay: MTT cell viability, HeLa; settings: Homo sapiens, 24 h, read-out: IC50 cytotoxic effect, HeLa
Procedure: as §1, §2

[1] = MTT cell viability, Hek-293; settings: human, Hek-293 cells
Procedure: as §1, §2

PA-1 cells = assay: Glycolysis stress test (Seahorse XFe96, ECAR); assay type: cell-based, human; settings: PA-1, 100 µM
Procedure: In order to achieve a 90–95% monolayer, approximately 40,000 PA-1 cells per well were placed in XF96 cell-culture plates and a glycolysis stress test was performed 24 h later using an XFe96 extracellular flow analyzer (Seahorse Bioscience, North Billerica, MA, USA) by measuring the rate of extracellular medium acidification (ECAR).
Briefly, after the cells were seeded, the plate was placed in an incubator and cultured for 24 h under the standard conditions described above.
After placing the tablet in the analyzer, a step-by-step measurement of the extracellular acidification rate of the medium was performed in response to the sequential addition of modulators: port A—the studied compounds at a concentration of 100 µM, port B—10 mM of glucose (Seahorse Bioscience, North Billerica, MA, USA), port C—1 µM of oligomycin (Sigma Aldrich, St. Louis, MI, USA) and port D—25 mM 2-deoxy-D-glucose (Sigma Aldrich, St. Louis, MI, USA). To ensure the stability of each measurement, three separate readings were taken.
Glycolysis was measured by estimating the difference between the maximum ECAR after glucose injection and the last measurement before glucose addition. Such a parameter of glycolytic function as glycolytic capacity was determined by analyzing the difference between the maximum ECAR after oligomycin injection and the last measurement before glucose addition. Glycolytic reserve was defined as the difference between glycolytic capacity and glycolysis.

HeLa cell line = assay: Cisplatin cytotoxicity alone and combined with hydroxamic acids, HeLa (MTT); assay type: cell-based, human; settings: 5 µM of compound with cisplatin
Procedure: Cell viability was measured using MTT analysis, as described earlier [48]. In short, 10,000 HeLa and Hek-293 cells per well were placed in sterile 96-well culture plates and cultured under the standard conditions described above for 24 h to adhere. After the time elapsed, the cells were treated with the studied compounds in a concentration range from 0.1 to 100 µM (0.1–1–3–10–30–100) and incubated for 24 h. The control samples contained an equivalent volume of solvent (DMSO < 1%). At the end of incubation, cell viability was measured by adding an MTT solution (the final concentration was 5 mg/mL, DiaM, Moscow, Russia). After 2 h of incubation at 37 °C, the nutrient medium was carefully aspirated and replaced with 200 µL of dimethyl sulfoxide to dissolve the formazane granules. The optical density of the formazane solution was determined using a multifunctional analyzer Cytation™3 (BioTek Instruments, Inc., Winooski, VT, USA) at λ = 530 nm. […]
Then, the cells were treated with a combination of increasing doses of cytostatic agents and the test compound with a constant ratio of 1:4, and subsequently, a cell death analysis was performed. The CI values were calculated and plotted using CompuSyn.exe (Biosoft, Ferguson, MO, USA) based on the concentration and effect of each agent and their combinations according to instructions of the software. […]

HeLa/CDDP cells = assay: Cisplatin cytotoxicity alone and combined with hydroxamic acids, cisplatin-resistant HeLa/CDDP (MTT); assay type: cell-based, human; settings: 5 µM hydroxamic acid
Procedure: Cell viability was measured using MTT analysis, as described earlier [48]. In short, 10,000 HeLa and Hek-293 cells per well were placed in sterile 96-well culture plates and cultured under the standard conditions described above for 24 h to adhere. After the time elapsed, the cells were treated with the studied compounds in a concentration range from 0.1 to 100 µM (0.1–1–3–10–30–100) and incubated for 24 h. The control samples contained an equivalent volume of solvent (DMSO < 1%). At the end of incubation, cell viability was measured by adding an MTT solution (the final concentration was 5 mg/mL, DiaM, Moscow, Russia). […] The optical density of the formazane solution was determined using a multifunctional analyzer Cytation™3 (BioTek Instruments, Inc., Winooski, VT, USA) at λ = 530 nm. All experiments were carried out in three repetitions.

T1 sequence (Q13547 whole entry): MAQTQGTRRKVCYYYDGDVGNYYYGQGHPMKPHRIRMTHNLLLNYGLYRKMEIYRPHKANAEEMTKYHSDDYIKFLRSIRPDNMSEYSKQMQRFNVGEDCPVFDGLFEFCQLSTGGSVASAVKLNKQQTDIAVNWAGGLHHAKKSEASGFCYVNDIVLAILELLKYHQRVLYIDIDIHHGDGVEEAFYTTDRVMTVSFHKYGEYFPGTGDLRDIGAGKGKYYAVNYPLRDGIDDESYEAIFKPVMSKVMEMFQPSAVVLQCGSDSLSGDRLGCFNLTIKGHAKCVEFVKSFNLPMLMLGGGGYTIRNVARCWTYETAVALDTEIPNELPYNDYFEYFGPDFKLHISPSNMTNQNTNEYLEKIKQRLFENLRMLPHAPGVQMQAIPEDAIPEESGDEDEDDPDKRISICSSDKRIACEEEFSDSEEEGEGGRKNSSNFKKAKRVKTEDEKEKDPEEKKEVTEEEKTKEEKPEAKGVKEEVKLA

IC50 (HDAC1) [µM]	melting point [°C]	SMILES	IC50 at 24 h (in vitro) [µM]	IC50 (HeLa cells) [µM]	IC50 at 24 h [1] [µM]	inhibition at 100 µM (PA-1 cells; Homo sapiens, vs. control, read-out: inhibition of glycolytic reserve (ECAR)) [%]	glycolytic capacity (maximum ECAR after oligomycin injection) (PA-1 cells; p < 0.0001 vs. control)	reduction of glycolysis (ECAR) (PA-1 cells; vs. control) [%]	decrease in the value of cisplatin IC50 (HeLa cell line) [%]	fold decrease in the IC50 of cisplatin (HeLa/CDDP cells)
6.9 ± 0.03	96.5	CC1(C)C2CC=C(CNC(=O)/C=C/c3ccc(C(=O)NO)cc3)[C@@H]1C2 [18a, 4-((E)-3-((((1R)-6,6-Dimethylbicyclo[3.1.1]hept-2-en-2-yl)methyl)amino)-3-oxoprop-1-en-1-yl)-N-hydroxybenzamide]		29.2 ± 1.06	46.7 ± 2.93					
4.45 ± 0.3		CC1(C)C2CC=C(CCNC(=O)/C=C/c3ccc(C(=O)NO)cc3)[C@@H]1C2 [18c, 4-((E)-3-((2-((1R)-6,6-Dimethylbicyclo[3.1.1]hept-2-en-2-yl)ethyl)amino)-3-oxoprop-1-en-1-yl)-N-hydroxybenzamide]		33.8 ± 1.19	34 ± 3.04	86	significantly lower	26.6	34.50	approximately 2.02 fold
5 ± 0.12	132.5 to 132.6	CC1(C)C2CC=C(CCNC(=O)c3ccc(/C=C/C(=O)NO)cc3)[C@@H]1C2 [21c, N-(2-((1R)-6,6-Dimethylbicyclo [3.1.1]hept-2-en-2-yl)ethyl)-4-((E)-3-(hydroxyamino)-3-oxoprop-1-en-1-yl)benzamide]		19.1 ± 0.96	33.9 ± 2.59					
		CC(/C=C/C(=O)NO)=C\[C@@H](C)C(=O)c1ccc(N(C)C)cc1 [Trichostatin A, reference compound]		0.38 ± 0.02	0.22 ± 0.01					
7.96 ± 0.28		CC1(C)C2CC=C(CNC(=O)/C=C/c3ccc(C(=O)NO)cc3)[C@H]1C2 [18b, 4-((E)-3-((((1S)-6,6-Dimethylbicyclo[3.1.1]hept-2-en-2-yl)methyl)amino)-3-oxoprop-1-en-1-yl)-N-hydroxybenzamide]		43.6 ± 1.02	38.9 ± 1.24					

SMILES	IC50 (HDAC1) [µM]	melting point [°C]	IC50 at 24 h (in vitro) [µM]	IC50 (HeLa cells) [µM]	IC50 at 24 h [1] [µM]	inhibition at 100 µM (PA-1 cells; Homo sapiens, vs. control, read-out: inhibition of glycolytic reserve (ECAR)) [%]	glycolytic capacity (maximum ECAR after oligomycin injection) (PA-1 cells; p < 0.0001 vs. control)	reduction of glycolysis (ECAR) (PA-1 cells; vs. control) [%]	decrease in the value of cisplatin IC50 (HeLa cell line) [%]	fold decrease in the IC50 of cisplatin (HeLa/CDDP cells)
CC1(C)C2CC=C(CNC(=O)c3ccc(/C=C/C(=O)NO)cc3)[C@@H]1C2 [21a, N-(((1R)-6,6-Dimethylbicyclo[3.1.1]hept-2-en-2-yl)methyl)-4-((E)-3-(hydroxyamino)-3-oxoprop-1-en-1-yl)benzamide]	7.23 ± 0.46	74.6	21.2 ± 1.66	18 ± 0.47						
CC1(C)C2CC=C(CNC(=O)c3ccc(/C=C/C(=O)NO)cc3)[C@H]1C2 [21b, N-(((1S)-6,6-Dimethylbicyclo[3.1.1]hept-2-en-2-yl)methyl)-4-((E)-3-(hydroxyamino)-3-oxoprop-1-en-1-yl)benzamide]	8.2 ± 0.49		37.2 ± 1.89	42.8 ± 1.28						
